Reference: US8703951B2, “Synthesis of 4H-benzo[D]pyrrolo[1,2-A]thiazoles and indolizino[6,7-b]indole derivatives and their use as antitumor therapeutic agents” (Academia Sinica, priority 2011, dated 2014)
Like-named read-outs stand apart in the source and are kept apart here.

Tests used:
[1] = system: non-small cell lung carcinoma H1299; assay: In vitro cytotoxicity, Alamar blue assay, H1299; type: cell-based, human
Protocol: (§1) Prostate cancer PC3, non-small cell lung carcinoma cells H1299, and human glioma cells U87 were purchased from the American Type Culture Collection (Rockville, Md.). OECM-1 (human gingival squamous cell carcinoma cells) was obtained from Dr C.-L. Meng (National Defense Medical College, Taiwan).^22
(§2) In preparation for in vitro cytotoxicity assays, cells were cultured at an initial density 2−5×10^4 cells per milliliter. They were maintained in a 5% CO2-humidified atmosphere at 37° C. in RPMI medium 1640 (GIBCO/BRL) containing penicillin (100 units/mL), streptomycin (100 μg/mL, GIBCO/BRL), and 5% heat-inactivated FBS. For cells grown in suspension (such as CCRF-CEM and its sublines), cytotoxicity was measured, by using XTT microculture method^23 in 96-well microtiter plates.
(§3) The cytotoxic effects of the newly synthesized compounds were determined in T-cell acute lymphocytic leukemia (CCRF-CEM) and their resistant subcell lines (CCRF-CEM/Taxol and CCRF-CEM/VBL) by the XTT assay^24 and human solid tumor cells (i.e. breast carcinoma MX-1 and colon carcinoma HCT-116) by the SRB assay^25 in a 72 h incubation using a microplate spectrophotometer as described previously.^25 After the addition of phenazine methosulfate-XTT solution, incubated at 37° C. for 6 h and absorbance at 450 and 630 nm was detected on a microplate reader (EL 340). The cytotoxicity of the newly synthesized compounds against non-small cell lung carcinoma H1299, prostate cancer PC3, oral cancer OECM-1 and glioma U87 were determined by the Alamar blue assay^26 in a 72 h incubation using a microplate spectrophotometer as described previously. After the addition of alamar blue solution, it was incubated at 37° C. for 6 h. Absorbance at 570 and 600 nm was detected on a microplate reader. IC50 values were determined from dose-effect relationship at six or seven concentrations of each drug using the CompuSyn software by Chou and Martin^27 based on the median-effect principle and plot.^28,29 Ranges given for Cisplatin were mean±SE (n=4).

CCRF-CEM/Taxol = assay: In vitro cytotoxicity, XTT assay, CCRF-CEM/Taxol; type: cell-based, human; conditions: Table 5; for IC50: Taxol-resistant subline, XTT, 72 h, read-out: Cell Growth inhibition (IC50 μM) CCRF-CEM/Taxol; for fold of cross-resistant vs IC50 of the parent cell line, CCRF-CEM/Taxol: number in brackets
Description: (§4) Human colon carcinoma HCT-116 cells and human prostate adenocarcinoma PC-3 cells were obtained from American Type Culture Collection (ATCC, Rockville, Md.). Human mammary carcinoma (MX-1) tumor cells were obtained from MSKCC cell bank. The CCRF-CEM human lymphoblastic leukemia cells and their vinblastine resistant subline (CCRF-CEM/VBL, 680-fold resistance in vitro) were obtained from Dr. William Beck of the University of Illinois, Chicago, and CCRF-CEM/Taxol (330-fold resistance in vitro). Resistant cells CCRF-CEM/taxol were produced by exposing the parent cells to increasing sublethal concentration (IC50-IC90) of paclitaxel for six months.
as §2, §3

breast carcinoma MX-1 = assay: In vitro cytotoxicity, SRB assay, MX-1; type: cell-based, human; conditions: Homo sapiens
Description: as §4, §2, §3

glioma U87 = assay: In vitro cytotoxicity, Alamar blue assay, U87; type: cell-based, human
Protocol: as §1, §2, §3

CCRF-CEM/VBL = assay: In vitro cytotoxicity, XTT assay, CCRF-CEM/VBL; type: cell-based, human; conditions: Table 5; for IC50: vinblastine-resistant subline, XTT, 72 h, read-out: Cell Growth inhibition (IC50 μM) CCRF-CEM/VBL; for fold of cross-resistant vs IC50 of the parent cell line, CCRF-CEM/VBL: number in brackets
Description: as §4, §2, §3

prostate cancer PC3 = assay: In vitro cytotoxicity, Alamar blue assay, PC3; type: cell-based, human; conditions: Table 6, 72 h
Protocol: as §1, §2, §3

oral cancer OECM-1 = assay: In vitro cytotoxicity, Alamar blue assay, OECM-1; type: cell-based, human
Protocol: as §1, §2, §3

colon carcinoma HCT-116 = assay: In vitro cytotoxicity, SRB assay, HCT-116; type: cell-based, human; conditions: Homo sapiens
Description: as §4, §2, §3

linearized pBR322DNA = assay: DNA cross-linking, alkaline agarose gel shift assay; type: biochemical; conditions: 1, 10, and 20 μM; FIG. 8
Protocol: Formation of DNA cross-linking was analyzed by alkaline agarose gel electrophoresis assay. […] The reaction mixture was incubated at 37° C. for 2 h. At the end of reaction, the plasmid DNA was linearized by digestion with BamHI and followed by precipitation with ethanol. The DNA pellets were dissolved and denatured in alkaline buffer (0.5 N NaOH-10 mM EDTA). An aliquot of 20 μL of DNA solution (1000 ng) was mixed with 4 μL of 6× alkaline loading dye and then electrophoretically resolved on a 0.8% alkaline agarose gel with NaOH-EDTA buffer at 4° C. The electrophoresis was carried out at 18 V for 22 h. After staining the gels with an ethidium bromide solution, the DNA was then visualized under UV light.

[2] = system: human lymphoblastic leukemia (CCRF-CEM); assay: In vitro cytotoxicity, XTT assay, CCRF-CEM; type: cell-based
Description: as §4, §2, §3

[3] = Homo sapiens, NCI-H1299, Table 6, 72 h
[4] = Homo sapiens, OECM1, Table 6, 72 h
[5] = Homo sapiens, CCRF-CEM, Table 5, 72 h incubation, read-out: Cell Growth inhibition (IC50 μM) CCRF-CEM
[6] = Table 5, 72 h incubation, read-out: Cell Growth inhibition (IC50 μM) CCRF-CEM
[7] = Homo sapiens, CCRF-CEM, Table 7, 72 h, read-out: IC50 (μM) CCRF/CEM

For `OCc1c(CO)c2sc3ccccc3n2c1-c1ccc(Cl)cc1` [Compound 18c, (1-(4-Chlorophenyl)benzo[d]pyrrolo[2,1-b]thiazole-2,3-diyl)dimethanol], the IC50 [1, 3] was 12.4 ± 0.44 µM, the IC50 (CCRF-CEM/Taxol; Homo sapiens, CCRF-CEM) was 5.22 ± 0.026 µM and the “fold of cross-resistant vs IC50 of the parent cell line, CCRF-CEM/Taxol” value (“fold of cross-resistant vs IC50 … CCRF-CEM/Taxol” for short) (CCRF-CEM/Taxol) was 2.00 ×. For the same compound, the IC50 (breast carcinoma MX-1; Table 6, 72 h) was 10.4 ± 0.003 µM, the IC50 (glioma U87; Homo sapiens, Table 6, 72 h) was 20.7 ± 2.26 µM and the IC50 (CCRF-CEM/VBL; Homo sapiens, CCRF-CEM) was 4.09 ± 0.025 µM. The “fold of cross-resistant vs IC50 of the parent cell line, CCRF-CEM/VBL” value (shortened to “fold of cross-resistant vs IC50 … CCRF-CEM/VBL”) (CCRF-CEM/VBL) was 1.56 ×, the IC50 (prostate cancer PC3; Homo sapiens) was 20.4 ± 3.43 µM and the IC50 (oral cancer OECM-1; [4]) was 14.6 ± 1.13 µM. The IC50 (colon carcinoma HCT-116; HCT-116, Table 6, 72 h) was 9.26 ± 0.049 µM, the DNA interstrand cross-linking (linearized pBR322DNA) was “able to bind covalently (interstrand cross-linking) with DNA” and the IC50 [2, 5] was 2.61 ± 0.03 µM.
In the case of `COc1ccc(-c2c(CO)c(CO)c3sc4ccccc4n23)cc1` [Compound 18g, (1-(4-Methoxyphenyl)benzo[d]pyrrolo[2,1-b]thiazole-2,3-diyl)dimethanol], the IC50 [1, 3] is reported as 9.94 ± 1.87 µM, the IC50 (CCRF-CEM/Taxol; Homo sapiens, CCRF-CEM) is reported as 2.17 ± 0.02 µM and the “fold of cross-resistant vs IC50 … CCRF-CEM/Taxol” value (CCRF-CEM/Taxol) is reported as 1.9 ×. The IC50 (glioma U87; Homo sapiens, Table 6, 72 h) was 18.1 ± 3.71 µM, the IC50 (CCRF-CEM/VBL; Homo sapiens, CCRF-CEM) was 2.63 ± 0.031 µM and the “fold of cross-resistant vs IC50 … CCRF-CEM/VBL” value (CCRF-CEM/VBL) was 2.30 ×. The IC50 (prostate cancer PC3; Homo sapiens) was 8.81 ± 1.2 µM, the IC50 (oral cancer OECM-1; [4]) was 5 ± 0.78 µM and the DNA interstrand cross-linking (linearized pBR322DNA) was “able to bind covalently (interstrand cross-linking) with DNA”. It also gave an IC50 [2, 5] of 1.13 ± 0.09 µM.
In the case of `CCNC(=O)OCc1c(COC(=O)NCC)c2sc3ccccc3n2c1-c1ccc(OC)cc1` [Compound 19g, (1-(4-Methoxyphenyl)benzo[d]pyrrolo[2,1-b]thiazole-2,3-diyl)bis(methylene)bis(ethylcarbamate)], the IC50 ([1]; Table 6, 72 h) is reported as 8.85 ± 1.53 µM, the IC50 (CCRF-CEM/Taxol) is reported as 0.37 ± 0.001 µM and the “fold of cross-resistant vs IC50 … CCRF-CEM/Taxol” value (CCRF-CEM/Taxol) is reported as 1.90 ×. For the same compound, the IC50 (glioma U87; Table 6, 72 h) was 29.5 ± 4.86 µM, the “fold of cross-resistant vs IC50 … CCRF-CEM/VBL” value (CCRF-CEM/VBL) was 2.20 × and the IC50 (CCRF-CEM/VBL) was 0.42 ± 0.003 µM. For the same compound, the IC50 (prostate cancer PC3) was 17.9 ± 3.59 µM, the IC50 (oral cancer OECM-1; Table 6, 72 h) was 9.39 ± 1.9 µM and the DNA interstrand cross-linking (linearized pBR322DNA) was “able to bind covalently (interstrand cross-linking) with DNA”. For the same compound, the IC50 [2, 6] was 0.19 ± 0.002 µM.
In the case of `COc1ccc(-c2c(COC(=O)NC(C)C)c(COC(=O)NC(C)C)c3sc4ccccc4n23)cc1` [Compound 20g, (1-(4-Methoxyphenyl)benzo[d]pyrrolo[2,1-b]thiazole-2,3-diyl)bis(methylene)bis(iso-propylcarbamate)], the IC50 ([1]; Table 6, 72 h) is reported as 8.19 ± 1.74 µM, the IC50 (CCRF-CEM/Taxol) is reported as 0.17 ± 0.004 µM and the “fold of cross-resistant vs IC50 … CCRF-CEM/Taxol” value (CCRF-CEM/Taxol) is reported as 1.17 ×. For the same compound, the IC50 (glioma U87; Table 6, 72 h) was 60.9 ± 13.4 µM, the “fold of cross-resistant vs IC50 … CCRF-CEM/VBL” value (CCRF-CEM/VBL) was 1.47 × and the IC50 (CCRF-CEM/VBL) was 0.25 ± 0.008 µM. The IC50 (prostate cancer PC3) was 17.5 ± 0.8 µM, the IC50 (oral cancer OECM-1; Table 6, 72 h) was 7.23 ± 1.57 µM and the DNA interstrand cross-linking (linearized pBR322DNA) was “able to bind covalently (interstrand cross-linking) with DNA”. For the same compound, the IC50 [2, 6] was 0.14 ± 0.002 µM.
Compound `Cn1c2c(c3ccccc31)Cc1c(CO)c(CO)c(-c3ccccc3)n1C2` [Compound 26b, (3-(phenyl)-6-methyl-6,11-dihydro-5H-indolizino[6,7-b]indole-1,2-diyl)dimethanol] has a melting point of 122 to 123 °C.
`Cn1c2c(c3ccccc31)Cc1c(CO)c(CO)c(-c3ccc(F)cc3)n1C2` [Compound 26c, (3-(4-Fluorophenyl)-6-methyl-6,11-dihydro-5H-indolizino[6,7-b]indole-1,2-diyl)dimethanol] showed a melting point of 240 to 241 °C.
`Cn1c2c(c3ccccc31)Cc1c(CO)c(CO)c(-c3ccc(Cl)cc3)n1C2` [Compound 26d, (3-(4-Chlorophenyl)-6-methyl-6,11-dihydro-5H-indolizino[6,7-b]indole-1,2-diyl)-dimethanol] gave an IC50 (breast carcinoma MX-1; Table 7, 72 h) of 11.3 ± 0.42 µM, a melting point of 238 to 239 °C and an IC50 (colon carcinoma HCT-116; HCT-116, Table 7, 72 h) of 13.49 ± 0.088 µM. It also gave an IC50 [2, 7] of 4.58 ± 0.378 µM.
In the case of `Cn1c2c(c3ccccc31)Cc1c(CO)c(CO)c(-c3ccc(F)c(F)c3)n1C2` [Compound 26e, (3-(3,4-Difluorophenyl)-6-methyl-6,11-dihydro-5H-indolizino[6,7-b]indole-1,2-diyl)dimethanol], the melting point is reported as 195 to 196 °C.
`Cc1c(CO)c(CO)c2n1Cc1c(c3ccccc3n1C)C2` [Compound 33a, [3,6-Dimethyl-6,11-dihydro-5H-indolizino[6,7-b]indole-1,2-diyl]dimethanol] showed an IC50 ([1]; Homo sapiens, NCI-H1299, Table 7, 72 h) of 3.96 ± 1.79 µM, an IC50 (breast carcinoma MX-1; Table 7, 72 h) of 0.22 ± 0.019 µM and an IC50 (glioma U87; Homo sapiens, Table 7, 72 h) of 6.54 ± 2.16 µM. It also gave a melting point of 200 to 201 °C, an IC50 (colon carcinoma HCT-116; HCT-116, Table 7, 72 h) of 0.12 ± 0.001 µM and an IC50 [2, 7] of 0.042 ± 0.0003 µM.
